Where two headings read alike, the source gives them in different places. Square brackets hold non-standard residues; d marks the D form. Peptide text beside a SMILES is read from it. * marks the point of attachment. Desaminotyrosyl = O=C(CCc1ccc(O)cc1)*; hArg = N=C(N)NCCCC[C@H](N)C(=O)O; Agb = N=C(N)NCC[C@H](N)C(=O)O; Nle = CCCC[C@H](N)C(=O)O; Orn = NCCC[C@H](N)C(=O)O
Tested on: trypsin
Assay: Trypsin digestion test (enzymatic resistance, HPLC)
Format: in vitro ADME
Details: for remaining at 0.5 h, 0.4 mg/ml / remaining at 1 h, 0.4 mg/ml: isolated enzyme trypsin
Protocol: The compounds prepared were also tested for enzymatic resistance in the trypsin digestion test. […] Subsequently, a trypsin solution was added (100 μl; 0.02 mg/ml; Serva, 36 U/mg). […] An aliquot (500 μl) was withdrawn and diluted with 0.5 M acetic acid (1 ml), then lyophilized. The material obtained was analyzed by HPLC, using a Knauer system with an Eurospher 100 C18 (4.6×250 mm, 5 micron) column. The following solvent systems were used: A, 0.1% TFA in water; […]

[1] = trypsin, pH 8.5, 37° C., digestion time 30 min., read-out: % Unchanged compound
[2] = trypsin, pH 8.5, 37° C., digestion time 60 min., read-out: % Unchanged compound

SMILES	Resistance to trypsin digestion (in words) (after 30 minutes)	remaining at 0.5 h, 0.4 mg/ml [1]	remaining at 1 h, 0.4 mg/ml [2]	remaining at 0.5 h, 0.4 mg/ml (pH 8.5)	remaining at 1 h, 0.4 mg/ml (pH 8.5)
CCCC[C@H](NC(=O)[C@@H](NC(=O)[C@H](CC(=O)O)NC(=O)[C@H](CCC(N)=O)NC(=O)[C@H](CC(C)C)NC(=O)[C@H](CC(C)C)NC(=O)[C@H](CCCN)NC(=O)[C@H](CCCCNC(=N)N)NC(=O)[C@H](C)NC(=O)[C@H](CO)NC(=O)[C@H](CC(C)C)NC(=O)[C@H](CCC(N)=O)NC(=O)[C@H](C)NC(=O)[C@H](CC(C)C)NC(=O)[C@@H](NC(=O)[C@H](CCCN)NC(=O)[C@H](CCCCNC(=N)N)NC(=O)[C@H](Cc1ccc(O)cc1)NC(=O)[C@H](CO)NC(=O)[C@H](CC(N)=O)NC(=O)[C@@H](NC(=O)[C@H](Cc1ccccc1)NC(=O)[C@@H](NC(=O)[C@H](C)NC(=O)[C@H](CC(=O)O)NC(=O)[C@H](C)NC(=O)CCc1ccc(O)cc1)[C@@H](C)CC)[C@@H](C)O)C(C)C)[C@@H](C)CC)C(=O)N[C@@H](CC(=O)O)C(=O)N[C@@H](CCCCNC(=N)N)C(N)=O [Compound 2, Dat-Ala-Asp-Ala-Ile-Phe-Thr-Asn-Ser-Tyr^10-hArg-Orn-Val-Leu-Ala-Gln-Leu-Ser-Ala-hArg^20-Orn-Leu-Leu-Gln-Asp-Ile-Nle-Asp-hArg^29-NH2] (Desaminotyrosyl-ADAIFTNSY[hArg][Orn]VLAQLSA[hArg][Orn]LLQDI[Nle]D[hArg]-NH2)	unchanged	> 99%	> 99%		
CCCC[C@H](NC(=O)[C@@H](NC(=O)[C@H](CC(=O)O)NC(=O)[C@H](CCC(N)=O)NC(=O)[C@H](CC(C)C)NC(=O)[C@H](CC(C)C)NC(=O)[C@H](CCNC(=N)N)NC(=O)[C@H](CCNC(=N)N)NC(=O)[C@H](C)NC(=O)[C@H](CO)NC(=O)[C@H](CC(C)C)NC(=O)[C@H](CCC(N)=O)NC(=O)[C@H](C)NC(=O)[C@H](CC(C)C)NC(=O)[C@@H](NC(=O)[C@H](CCNC(=N)N)NC(=O)[C@H](CCNC(=N)N)NC(=O)[C@H](Cc1ccc(O)cc1)NC(=O)[C@H](CO)NC(=O)[C@H](CC(N)=O)NC(=O)[C@@H](NC(=O)[C@H](Cc1ccccc1)NC(=O)[C@@H](NC(=O)[C@H](C)NC(=O)[C@H](CC(=O)O)NC(=O)[C@H](C)NC(=O)CCc1ccc(O)cc1)[C@@H](C)CC)[C@@H](C)O)C(C)C)[C@@H](C)CC)C(=O)N[C@@H](CC(=O)O)C(=O)N[C@@H](CCNC(=N)N)C(N)=O [Compound 3, Dat-Ala-Asp-Ala-Ile-Phe-Thr-Asn-Ser-Tyr^10-Gab-Gab-Val-Leu-Ala-Gln-Leu-Ser-Ala-Gab-Gab-Leu-Leu-Gln-Asp-Ile-Nle-Asp-Gab-NH2] (Desaminotyrosyl-ADAIFTNSY[Agb][Agb]VLAQLSA[Agb][Agb]LLQDI[Nle]D[Agb]-NH2)				86%	72%
CCCC[C@H](NC(=O)[C@@H](NC(=O)[C@H](CC(=O)O)NC(=O)[C@H](CCC(N)=O)NC(=O)[C@H](CC(C)C)NC(=O)[C@H](CC(C)C)NC(=O)[C@H](CCNC(=N)N)NC(=O)[C@H](CCNC(=N)N)NC(=O)[C@H](C)NC(=O)[C@H](CO)NC(=O)[C@H](CC(C)C)NC(=O)[C@H](CCC(N)=O)NC(=O)[C@H](C)NC(=O)[C@H](CC(C)C)NC(=O)[C@@H](NC(=O)[C@H](CCNC(=N)N)NC(=O)[C@H](CCCCNC(=N)N)NC(=O)[C@H](Cc1ccc(O)cc1)NC(=O)[C@H](CO)NC(=O)[C@H](CC(N)=O)NC(=O)[C@@H](NC(=O)[C@H](Cc1ccccc1)NC(=O)[C@@H](NC(=O)[C@H](C)NC(=O)[C@H](CC(=O)O)NC(=O)[C@H](C)NC(=O)CCc1ccc(O)cc1)[C@@H](C)CC)[C@@H](C)O)C(C)C)[C@@H](C)CC)C(=O)N[C@@H](CC(=O)O)C(=O)N[C@@H](CCNC(=N)N)C(N)=O [Compound 4, Dat-Ala-Asp-Ala-Ile-Phe-Thr-Asn-Ser-Tyr^10-hArg-Gab-Val-Leu-Ala-Gln-Leu-Ser-Ala-Gab-Gab-Leu-Leu-Gln-Asp-Ile-Nle-Asp-Gab-NH2] (Desaminotyrosyl-ADAIFTNSY[hArg][Agb]VLAQLSA[Agb][Agb]LLQDI[Nle]D[Agb]-NH2)				82%	67%
CCCC[C@H](NC(=O)[C@@H](NC(=O)[C@H](CC(=O)O)NC(=O)[C@H](CCC(N)=O)NC(=O)[C@H](CC(C)C)NC(=O)[C@H](CC(C)C)NC(=O)[C@H](CCCCNC(=N)N)NC(=O)[C@H](CCCCNC(=N)N)NC(=O)[C@H](C)NC(=O)[C@H](CO)NC(=O)[C@H](CC(C)C)NC(=O)[C@H](CCC(N)=O)NC(=O)[C@H](C)NC(=O)[C@H](CC(C)C)NC(=O)[C@@H](NC(=O)[C@H](CCCCNC(=N)N)NC(=O)[C@H](CCNC(=N)N)NC(=O)[C@H](Cc1ccc(O)cc1)NC(=O)[C@H](CO)NC(=O)[C@H](CC(N)=O)NC(=O)[C@@H](NC(=O)[C@H](Cc1ccccc1)NC(=O)[C@@H](NC(=O)[C@H](C)NC(=O)[C@H](CC(=O)O)NC(=O)[C@H](C)NC(=O)CCc1ccc(O)cc1)[C@@H](C)CC)[C@@H](C)O)C(C)C)[C@@H](C)CC)C(=O)N[C@@H](CC(=O)O)C(=O)N[C@H](CCCNC(=N)N)C(N)=O [Compound 5, Dat-Ala-Asp-Ala-Ile-Phe-Thr-Asn-Ser-Tyr^10-Gab-hArg-Val-Leu-Ala-Gln-Leu-Ser-Ala-hArg-hArg-Leu-Leu-Gln-Asp-Ile-Nle-Asp-D-Arg-NH2] (Desaminotyrosyl-ADAIFTNSY[Agb][hArg]VLAQLSA[hArg][hArg]LLQDI[Nle]D[dR]-NH2)		80%	51%		
CCCC[C@H](NC(=O)[C@@H](NC(=O)[C@H](CC(=O)O)NC(=O)[C@H](CCC(N)=O)NC(=O)[C@H](CC(C)C)NC(=O)[C@H](CC(C)C)NC(=O)[C@H](CCCCNC(=N)N)NC(=O)[C@H](CCCCNC(=N)N)NC(=O)[C@H](C)NC(=O)[C@H](CO)NC(=O)[C@H](CC(C)C)NC(=O)[C@H](CCC(N)=O)NC(=O)[C@H](C)NC(=O)[C@H](CC(C)C)NC(=O)[C@@H](NC(=O)[C@H](CCNC(=N)N)NC(=O)[C@H](CCCCNC(=N)N)NC(=O)[C@H](Cc1ccc(O)cc1)NC(=O)[C@H](CO)NC(=O)[C@H](CC(N)=O)NC(=O)[C@@H](NC(=O)[C@H](Cc1ccccc1)NC(=O)[C@@H](NC(=O)[C@H](C)NC(=O)[C@H](CC(=O)O)NC(=O)[C@H](C)NC(=O)CCc1ccc(O)cc1)[C@@H](C)CC)[C@@H](C)O)C(C)C)[C@@H](C)CC)C(=O)N[C@@H](CC(=O)O)C(=O)N[C@H](CCCNC(=N)N)C(N)=O [Compound 6, Dat-Ala-Asp-Ala-Ile-Phe-Thr-Asn-Ser-Tyr^10-hArg-Gab-Val-Leu-Ala-Gln-Leu-Ser-Ala-hArg-hArg-Leu-Leu-Gln-Asp-Ile-Nle-Asp-D-Arg-NH2] (Desaminotyrosyl-ADAIFTNSY[hArg][Agb]VLAQLSA[hArg][hArg]LLQDI[Nle]D[dR]-NH2)				85%	73%
